# Experimental data from patent US20170073337A1, “DIHYDROTHIAZINE AND DIHYDROOXAZINE DERIVATIVES HAVING BACE1 INHIBITORY ACTIVITY” (Shionogi & Co., Ltd., priority 2014, published 2017).
# Read-outs that look alike come from different tables or passages of the source.
# Experiments:
# [1] = biological target: T1, Recombinant human BACE1 (Homo sapiens, UniProt P56817); test: Assay of BACE1 inhibitory activity: 384-well; format: biochemical; details: Assay format 384-well
# T1 construct: purchased R&D Systems
# T1 sequence (P56817 46-501): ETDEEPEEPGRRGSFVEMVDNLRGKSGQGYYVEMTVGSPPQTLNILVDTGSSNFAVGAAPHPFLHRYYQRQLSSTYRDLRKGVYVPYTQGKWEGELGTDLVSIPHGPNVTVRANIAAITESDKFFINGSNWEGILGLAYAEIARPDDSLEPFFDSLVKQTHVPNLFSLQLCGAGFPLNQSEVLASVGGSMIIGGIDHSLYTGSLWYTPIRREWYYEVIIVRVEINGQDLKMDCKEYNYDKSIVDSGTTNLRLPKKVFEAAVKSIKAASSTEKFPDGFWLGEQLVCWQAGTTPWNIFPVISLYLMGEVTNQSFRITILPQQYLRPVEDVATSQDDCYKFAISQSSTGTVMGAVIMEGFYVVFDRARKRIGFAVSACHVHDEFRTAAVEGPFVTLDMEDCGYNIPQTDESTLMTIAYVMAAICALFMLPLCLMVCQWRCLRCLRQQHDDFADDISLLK
# Method: 5 μL of substrate peptide solution (Biotin-XSEVNLDAEFRHDSGC-Eu: X=ε-amino-n-capronic acid, Eu=Europium eryplate) was added to each well of 384-well plate (a black plate: Corning), and after addition of 0.1 μl of the compound of the present invention (DMSO solution) and 5 μl of Recombinant human BACE1 (R&D Systems), the reaction mixture was incubated at 25° C. for 2 hours. The substrate peptide was synthesized by reacting Cryptate TBPCOOH mono SMP (CIS bio international) with Biotin-XSEVNLDAEFRHDSGC (Peptide Institute, Inc.).
# After the incubation for reaction, 10 μl of 8.0 μg/ml Streptavidin-XL665 (CIS bio International) dissolved in phosphate buffer (150 mmol/L K2HPO4-KH2PO4, pH 7.0, 0.008% Triton X-100, 0.8 mol/L KF) was added to each well and left stand at 25° C. for 30 minutes.
# [2] = test system: Aβ production in neuroblastoma SH-SY5Y cells (SH/APPwt); test: β-amyloid (Aβ) production inhibitory effect in cell: 384-well; format: cell-based; details: Homo sapiens, Assay format 384-well
# Method: Neuroblastoma SH-SY5Y cells (SH/APPwt) with human wild-type β-APT excessively expressed therein were prepared at 4×10^5 cells/mL, and 50 μl portions thereof were inoculated into each well of a 384-well culture plate (Corning) added 0.5 μl of the test compound of the present invention (DMSO solution). The final DMSO concentration was 1%, and the amount of the cell culture was 50 μl. After the incubation was performed for 21 hours from the cell seeding, 5 μl of the culture supernatant was collected from each fraction. The amount of the Aβ in each fraction was measured.
# The Aβ amount was measured as follows. 5 μl of a homogeneous time resolved fluoresrenee (HTRF) measurement reagent (Amyloid β1-40 peptide; CIS bio international) and 5 μl of the culture supernatant were put into a 384′well plate (a black plate: Corning) and mixed with each other, and then left standing overnight at 4° C. while the light was shielded. Then, the fluorescence intensity (620 nm and 665 nm) was measured with EnViston (Perkin Elmer life sciences).
# [3] = biological target: T2, CYP1A2 (Homo sapiens, UniProt P05177); test: CYP inhibition test (CYP1A2); format: in vitro ADME; details: pooled human liver microsomes; 7-ethoxyresorufin O-deethylation
# T2 construct: The commercially available pooled human liver microsomes are used as an enzyme resource; from tissue; host or cells: pooled human liver microsomes
# T2 sequence (P05177 1-516): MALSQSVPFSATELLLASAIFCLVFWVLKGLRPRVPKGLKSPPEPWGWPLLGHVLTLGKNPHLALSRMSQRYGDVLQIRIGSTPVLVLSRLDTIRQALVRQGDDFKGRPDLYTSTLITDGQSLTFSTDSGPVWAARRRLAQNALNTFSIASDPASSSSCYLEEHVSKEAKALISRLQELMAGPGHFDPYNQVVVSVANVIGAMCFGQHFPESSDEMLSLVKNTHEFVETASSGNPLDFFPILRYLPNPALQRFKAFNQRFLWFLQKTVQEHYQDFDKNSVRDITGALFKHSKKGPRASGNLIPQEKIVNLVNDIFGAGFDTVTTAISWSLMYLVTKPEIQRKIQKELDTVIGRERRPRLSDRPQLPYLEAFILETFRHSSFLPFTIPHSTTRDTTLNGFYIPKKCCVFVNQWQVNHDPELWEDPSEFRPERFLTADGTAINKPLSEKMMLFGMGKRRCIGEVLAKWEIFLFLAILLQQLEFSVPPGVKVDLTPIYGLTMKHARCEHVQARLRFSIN
# From the text: (§1) The CYP inhibition test is a test to assess the inhibitory effect of a compound of the present invention towards typical substrate metabolism reactions on CYP enzymes in human liver microsomes. The marker reactions on human main five CYP enzymes (CYP1A2, 2C9, 2C19, 2D6, and 3A4) are used as follows: 7-ethoxyresorufin O-deethylation (CYP1A2), tolbutamide methyl-hydroxylation (CYP2C9), mephenytoin 4′-hydroxylation (CYP2C19), dextromethorphan O-demethylation (CYP2D6), and terfenadine hydroxylation (CYP3A4). The commercially available pooled human liver microsomes are used as an enzyme resource.
# (§2) The reaction conditions were as follows: substrate, 0.5 μmol/L ethoxyresorufin (CYP1A2), 100 μmol/L tolbutamide (CYP2C9), 50 μmol/L, S-mephenytoin (CYP2C19), 5 μmol/L dextromethorphan (CYP2D6), 1 μmol/L terfenadine (CYP3A4): reaction time, 15 minutes: reaction temperature, 37° C.; enzyme, pooled human liver microsomes 0.2 mg protein/mL; concentrations of the compound of the present invention, 1, 5, 10, 20 μmol/L (four points).
# (§3) Five kinds of substrates, human liver microsomes, and a compound solution of the present invention in […] Hepes buffer were added to a 96-well plate at the composition as described above as a reaction solution. NADPH as a cofactor was added to this 96-well plate in order to initiate metabolism reactions. After the incubation at 37° C.for […], a methanol/acetonitrile=1/1 (v/v) solution was added to stop the reaction. After the centrifugation at 3000 rpm for 15 minutes, resorufin (CYP1A2 metabolite) in the supernatant was quantified by a fluorescent plate reader, and hydroxytolbutamide (CYP2C9 metabolite), 4′-hydroxymephenytoin (CYP2C19 metabolite), dextrorphan (CYP2D6 metabolite), and terfenadine alcohol metabolite (CYP3A4 metabolite) in the supernatant were quantified by LC/MS/MS.
# (§4) The sample adding DMSO to a reaction system instead of compound of the present invention solution was adopted as a control (100%) because DMSO was used as a solvent to dissolve a compound of the present invention. Remaining activity (%) was calculated at each concentration of a compound of the present invention, and IC50 value was calculated by reverse presumption by a logistic model using a concentration and an inhibition rate.
# [4] = biological target: T3, CYP2C9 (Homo sapiens, UniProt P11712); test: CYP inhibition test (CYP2C9); format: in vitro ADME; details: pooled human liver microsomes; tolbutamide methyl-hydroxylation
# T3 construct: The commercially available pooled human liver microsomes are used as an enzyme resource; from tissue; host or cells: pooled human liver microsomes
# T3 sequence (P11712 whole entry): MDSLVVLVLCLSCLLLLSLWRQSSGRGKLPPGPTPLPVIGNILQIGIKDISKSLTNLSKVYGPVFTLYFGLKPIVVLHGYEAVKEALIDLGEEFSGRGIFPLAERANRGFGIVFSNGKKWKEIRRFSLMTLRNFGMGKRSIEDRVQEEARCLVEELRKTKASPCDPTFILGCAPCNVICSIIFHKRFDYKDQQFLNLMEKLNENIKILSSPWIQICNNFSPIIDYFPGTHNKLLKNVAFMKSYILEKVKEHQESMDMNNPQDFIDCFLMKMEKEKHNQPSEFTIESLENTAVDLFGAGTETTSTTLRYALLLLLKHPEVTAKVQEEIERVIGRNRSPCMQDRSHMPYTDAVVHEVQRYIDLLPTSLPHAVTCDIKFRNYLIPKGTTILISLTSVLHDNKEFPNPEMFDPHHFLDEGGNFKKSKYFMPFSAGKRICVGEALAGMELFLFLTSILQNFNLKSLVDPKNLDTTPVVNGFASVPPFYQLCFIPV
# From the text: as §1, §2, §3, §4
# [5] = biological target: T4, CYP2C19 (Homo sapiens, UniProt P33261); test: CYP inhibition test (CYP2C19); format: in vitro ADME; details: pooled human liver microsomes; mephenytoin 4′-hydroxylation
# T4 construct: The commercially available pooled human liver microsomes are used as an enzyme resource; from tissue; host or cells: pooled human liver microsomes
# T4 sequence (P33261 whole entry): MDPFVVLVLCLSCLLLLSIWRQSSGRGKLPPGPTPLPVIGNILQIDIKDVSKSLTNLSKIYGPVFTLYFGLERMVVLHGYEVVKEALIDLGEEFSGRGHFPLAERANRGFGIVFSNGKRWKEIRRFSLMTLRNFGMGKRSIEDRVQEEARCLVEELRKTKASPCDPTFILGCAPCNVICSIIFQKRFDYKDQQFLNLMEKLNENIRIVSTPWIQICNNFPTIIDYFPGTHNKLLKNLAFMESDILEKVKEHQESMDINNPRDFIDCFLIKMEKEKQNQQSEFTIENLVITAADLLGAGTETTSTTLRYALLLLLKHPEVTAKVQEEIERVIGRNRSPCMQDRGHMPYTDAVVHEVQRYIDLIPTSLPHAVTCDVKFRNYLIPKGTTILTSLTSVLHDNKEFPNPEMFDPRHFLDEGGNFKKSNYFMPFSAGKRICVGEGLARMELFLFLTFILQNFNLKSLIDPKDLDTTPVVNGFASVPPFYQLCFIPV
# From the text: as §1, §2, §3, §4
# [6] = biological target: T5, CYP2D6 (Homo sapiens, UniProt P10635); test: CYP inhibition test (CYP2D6); format: in vitro ADME; details: pooled human liver microsomes; dextromethorphan O-demethylation
# T5 construct: The commercially available pooled human liver microsomes are used as an enzyme resource; from tissue; host or cells: pooled human liver microsomes
# T5 sequence (P10635 whole entry): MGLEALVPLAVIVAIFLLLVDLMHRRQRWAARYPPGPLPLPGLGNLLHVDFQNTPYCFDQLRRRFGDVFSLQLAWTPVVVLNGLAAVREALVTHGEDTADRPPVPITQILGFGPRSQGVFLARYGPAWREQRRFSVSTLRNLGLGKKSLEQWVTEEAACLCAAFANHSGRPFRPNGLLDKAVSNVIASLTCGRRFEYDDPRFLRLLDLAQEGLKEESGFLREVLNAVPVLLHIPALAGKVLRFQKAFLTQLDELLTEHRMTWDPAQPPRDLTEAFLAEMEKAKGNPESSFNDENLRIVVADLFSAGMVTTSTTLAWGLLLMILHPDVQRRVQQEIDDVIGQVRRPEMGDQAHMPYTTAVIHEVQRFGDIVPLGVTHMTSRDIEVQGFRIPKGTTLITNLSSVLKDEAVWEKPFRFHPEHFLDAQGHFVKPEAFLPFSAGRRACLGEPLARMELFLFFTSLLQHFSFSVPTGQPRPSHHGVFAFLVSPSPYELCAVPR
# From the text: as §1, §2, §3, §4
# [7] = biological target: T6, CYP3A4 (Homo sapiens, UniProt P08684); test: CYP inhibition test (CYP3A4); format: in vitro ADME; details: pooled human liver microsomes; terfenadine hydroxylation
# T6 construct: The commercially available pooled human liver microsomes are used as an enzyme resource; from tissue; host or cells: pooled human liver microsomes
# T6 sequence (P08684 whole entry): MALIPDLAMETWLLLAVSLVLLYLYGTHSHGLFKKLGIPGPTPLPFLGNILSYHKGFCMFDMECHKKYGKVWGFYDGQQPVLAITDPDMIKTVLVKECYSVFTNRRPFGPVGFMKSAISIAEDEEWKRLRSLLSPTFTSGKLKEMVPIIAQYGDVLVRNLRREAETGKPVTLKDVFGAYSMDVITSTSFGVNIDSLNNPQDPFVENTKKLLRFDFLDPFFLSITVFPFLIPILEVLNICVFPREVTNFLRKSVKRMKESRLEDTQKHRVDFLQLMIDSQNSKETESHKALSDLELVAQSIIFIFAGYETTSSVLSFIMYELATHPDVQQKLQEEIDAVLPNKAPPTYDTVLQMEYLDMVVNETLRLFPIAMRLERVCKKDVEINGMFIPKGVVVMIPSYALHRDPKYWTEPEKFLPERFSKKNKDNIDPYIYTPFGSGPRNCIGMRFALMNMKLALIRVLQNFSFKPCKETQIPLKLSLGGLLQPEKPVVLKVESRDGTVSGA
# From the text: as §1, §2, §3, §4
# [8] = Solubility test; format: physicochemical; details: for solubility kinetic at 1 h: kinetic from dmso stock
# Method: A 10 mmol/L solution of the compound was prepared with DMSO, and 2 μL of the compound of the present invention solution was added, respectively, to 198 μL of JP 1st fluid (water was added to 2.0 g of sodium chloride and 7.0 ml, of hydrochloric acid to reach 1000 mL) and JP 2nd fluid (See Table 4). The mixture was left standing for 16 hours at 25° C. or shaken for 1 hour at ruom temperature, and the mixture was vacuum-filtered. The […] was ten or one hundred-fold diluted with metbanol/water=1/1 (v/v) or MeCN/MeOH/H2O(=1/1/2), and the compound concent ration in the filtrate was measured with LC/MS or solid phase extraction (SPE)/MS by the absolute calibration method.
# [9] = Metabolic stability test; format: in vitro ADME; details: human liver microsomes, 37° C., 30 minutes, NADPH
# Method: Using a commercially available pooled human liver microsomes, a compound of the present invention was reacted for a constant time, a remaining rate was calculated by comparing a reacted sample and an unreacted sample, thereby, a degree of metabolism in liver was assessed.
# A reaction was performed (oxidative reaction) at 37° C. for 0 minute or 30 minutes in the presence of 1 mmol/L NADPH in 0.2 mL of a buffer (60 mmol/L Tris-HCl pH 7.4, 150 mmol/L potassium chloride, 10 mmol/L magnesium chloride) containing 0.5 mg protein/mL of human liver microsomes. After the reaction, 50 μL of the reaction solution was added to 100 μL of a methanol/acetonltrile=1/1 (v/v), mixed and centrifuged at 3000 rpm for 15 minutes. The compound of the present invention in the supernatant was quantified by LC/MS/MS or solid phase extraction (SPE)/MS, and a remaining amount of the compound of the present invention after the reaction area calculated, letting a compound amount at 0 minute reaction time to be 100%.
# [10] = JP 1st fluid, pH 1.2, simulated gastric fluid, read-out: JP1
# [11] = JP 2nd fluid B, pH 6.8, aqueous buffer, read-out: JP2_μM
SMILES,IC50 [1],IC50 [2],IC50 [3],IC50 [4],IC50 [5],IC50 [6],IC50 [7],"solubility kinetic at 1 h [8, 10]","solubility kinetic at 16 h ([8]; solubility in JP 2nd fluid B, 1% DMSO, *2: shaken for 1 hour at room temperature, read-out: JP2_μM)",remaining % [9],"solubility kinetic at 1 h [8, 11]"
C[C@H]1SC(N)=N[C@](C)(c2cccc(NC(=O)c3ccc(C#N)cn3)c2)[C@H]1F [Compound I-102],0.0234 µM,0.0016 µM,≥ 20 µM,≥ 20 µM,≥ 20 µM,≥ 20 µM,≥ 20 µM,> 50 µM,>50.0 µM,78.1%,–
Cc1cc(C#N)cnc1C(=O)Nc1cccc([C@@]2(C)N=C(N)S[C@H](C)[C@@H]2F)c1 [Compound I-105],0.0305 µM,0.00074 µM,≥ 20 µM,≥ 20 µM,≥ 20 µM,≥ 20 µM,≥ 20 µM,47.3 µM,–,56.8%,> 50 µM
C[C@H]1SC(N)=N[C@](C)(c2cccc(NC(=O)c3ccc(OCF)cn3)c2)[C@H]1F [Compound I-107],0.0235 µM,0.00042 µM,≥ 20 µM,≥ 10 µM,≥ 20 µM,≥ 20 µM,≥ 20 µM,33.5 µM,–,64.2%,> 50 µM
C[C@H]1SC(N)=N[C@](C)(c2cc(NC(=O)c3ncc(C#N)cc3F)ccc2F)[C@H]1F [Compound I-110],0.0225 µM,0.0011 µM,≥ 20 µM,≥ 10 µM,≥ 20 µM,≥ 10 µM,≥ 20 µM,42.1 µM,–,81.1%,> 50 µM
C[C@@H]1SC(N)=N[C@](C)(c2cc(NC(=O)c3ccc(C#N)cn3)ccc2F)[C@@H]1F [Compound I-113],0.164 µM,0.04 µM,≥ 20 µM,≥ 20 µM,≥ 20 µM,≥ 20 µM,≥ 20 µM,> 50 µM,–,–,48.6 µM
